ChEMBL document CHEMBL1131753, “Selective binding of bryostatin analogues to the cysteine rich domains of protein kinase C isozymes” (Bioorg Med Chem Lett, 1999)

Experiments:
[1] = target: T1, Protein kinase C gamma type (Homo sapiens, UniProt P05129); experiment: Displacement of [3H]PDBu from protein kinase C gamma C1b domain
[2] = target: T2, Protein kinase C delta type (Homo sapiens, UniProt Q05655); experiment: Displacement of [3H]PDBu from protein kinase C delta C1a domain
[3] = target: Protein kinase C eta type (Homo sapiens, UniProt P24723); experiment: Displacement of [3H]PDBu from protein kinase C eta C1b domain
Protein kinase C eta type, sequence (P24723 whole entry, the tested form may be a part): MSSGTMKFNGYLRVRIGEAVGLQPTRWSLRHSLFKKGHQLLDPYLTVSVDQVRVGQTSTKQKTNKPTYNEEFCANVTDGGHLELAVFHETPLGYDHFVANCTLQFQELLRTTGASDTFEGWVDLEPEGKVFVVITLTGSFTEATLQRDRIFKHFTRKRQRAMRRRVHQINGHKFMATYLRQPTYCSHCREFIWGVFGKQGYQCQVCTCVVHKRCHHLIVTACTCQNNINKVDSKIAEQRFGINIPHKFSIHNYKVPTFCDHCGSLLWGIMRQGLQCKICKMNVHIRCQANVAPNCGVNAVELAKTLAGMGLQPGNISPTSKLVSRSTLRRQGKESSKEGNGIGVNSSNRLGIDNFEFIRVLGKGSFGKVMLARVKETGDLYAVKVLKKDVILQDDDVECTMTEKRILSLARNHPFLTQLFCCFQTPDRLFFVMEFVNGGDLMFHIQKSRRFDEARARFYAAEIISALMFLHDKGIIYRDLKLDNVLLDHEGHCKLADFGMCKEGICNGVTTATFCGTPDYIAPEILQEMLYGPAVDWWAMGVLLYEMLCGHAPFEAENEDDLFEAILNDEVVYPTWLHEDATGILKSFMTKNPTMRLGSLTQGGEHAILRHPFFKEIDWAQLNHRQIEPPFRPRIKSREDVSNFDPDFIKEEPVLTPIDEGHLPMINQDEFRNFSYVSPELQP

[4] = target: Protein kinase C beta type (Homo sapiens, UniProt P05771); experiment: Displacement of [3H]PDBu from protein kinase C beta C1b domain
Protein kinase C beta type, sequence (P05771 whole entry, the tested form may be a part): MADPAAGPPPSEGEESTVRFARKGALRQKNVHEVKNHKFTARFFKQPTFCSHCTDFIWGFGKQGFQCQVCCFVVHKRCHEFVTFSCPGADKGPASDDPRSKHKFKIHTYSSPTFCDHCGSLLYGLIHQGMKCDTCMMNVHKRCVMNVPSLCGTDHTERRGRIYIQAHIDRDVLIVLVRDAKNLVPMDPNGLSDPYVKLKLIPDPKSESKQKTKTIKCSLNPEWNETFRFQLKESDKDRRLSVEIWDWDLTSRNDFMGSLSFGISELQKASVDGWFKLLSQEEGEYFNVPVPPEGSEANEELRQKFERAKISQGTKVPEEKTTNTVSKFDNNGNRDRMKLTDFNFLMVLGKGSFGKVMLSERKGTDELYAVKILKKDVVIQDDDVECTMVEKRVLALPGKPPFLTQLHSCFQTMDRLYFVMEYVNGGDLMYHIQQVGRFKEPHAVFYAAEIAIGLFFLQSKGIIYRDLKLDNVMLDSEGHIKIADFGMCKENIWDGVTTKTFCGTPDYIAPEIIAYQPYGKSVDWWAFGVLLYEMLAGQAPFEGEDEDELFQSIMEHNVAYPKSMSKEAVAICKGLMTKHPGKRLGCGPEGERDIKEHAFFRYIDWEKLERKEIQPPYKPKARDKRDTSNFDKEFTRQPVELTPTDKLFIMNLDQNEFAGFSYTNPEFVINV

[5] = target: T3, Protein kinase C epsilon type (Homo sapiens, UniProt Q02156); experiment: Displacement of [3H]PDBu from protein kinase C epsilon C1b domain
T3 sequence (Q02156 whole entry): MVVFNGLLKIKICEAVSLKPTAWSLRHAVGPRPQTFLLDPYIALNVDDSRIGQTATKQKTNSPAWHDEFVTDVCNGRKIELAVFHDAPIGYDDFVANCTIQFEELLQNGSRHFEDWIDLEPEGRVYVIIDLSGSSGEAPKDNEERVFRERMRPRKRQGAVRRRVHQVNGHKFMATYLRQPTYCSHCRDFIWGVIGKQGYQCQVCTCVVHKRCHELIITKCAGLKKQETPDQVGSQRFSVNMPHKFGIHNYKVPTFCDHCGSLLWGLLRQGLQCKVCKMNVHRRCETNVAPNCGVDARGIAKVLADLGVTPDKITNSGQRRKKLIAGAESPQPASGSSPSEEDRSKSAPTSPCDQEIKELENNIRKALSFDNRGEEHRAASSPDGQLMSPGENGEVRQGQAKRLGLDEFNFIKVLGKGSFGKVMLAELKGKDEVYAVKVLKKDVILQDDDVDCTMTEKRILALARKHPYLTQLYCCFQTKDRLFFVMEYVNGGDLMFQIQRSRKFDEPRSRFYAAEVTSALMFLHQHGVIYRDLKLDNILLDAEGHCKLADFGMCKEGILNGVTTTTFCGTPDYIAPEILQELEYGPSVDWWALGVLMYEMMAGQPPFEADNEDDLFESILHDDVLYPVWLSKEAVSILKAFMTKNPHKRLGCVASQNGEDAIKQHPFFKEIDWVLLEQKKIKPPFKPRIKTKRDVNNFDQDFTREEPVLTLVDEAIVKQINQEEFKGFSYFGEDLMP

[6] = target: T1, Protein kinase C gamma type; experiment: Displacement of [3H]-PDBu from protein kinase C gamma C1a domain
[7] = target: Protein kinase C theta type (Homo sapiens, UniProt Q04759); experiment: Displacement of [3H]PDBu from protein kinase C theta-C1B domain
Protein kinase C theta type, sequence (Q04759 whole entry, the tested form may be a part): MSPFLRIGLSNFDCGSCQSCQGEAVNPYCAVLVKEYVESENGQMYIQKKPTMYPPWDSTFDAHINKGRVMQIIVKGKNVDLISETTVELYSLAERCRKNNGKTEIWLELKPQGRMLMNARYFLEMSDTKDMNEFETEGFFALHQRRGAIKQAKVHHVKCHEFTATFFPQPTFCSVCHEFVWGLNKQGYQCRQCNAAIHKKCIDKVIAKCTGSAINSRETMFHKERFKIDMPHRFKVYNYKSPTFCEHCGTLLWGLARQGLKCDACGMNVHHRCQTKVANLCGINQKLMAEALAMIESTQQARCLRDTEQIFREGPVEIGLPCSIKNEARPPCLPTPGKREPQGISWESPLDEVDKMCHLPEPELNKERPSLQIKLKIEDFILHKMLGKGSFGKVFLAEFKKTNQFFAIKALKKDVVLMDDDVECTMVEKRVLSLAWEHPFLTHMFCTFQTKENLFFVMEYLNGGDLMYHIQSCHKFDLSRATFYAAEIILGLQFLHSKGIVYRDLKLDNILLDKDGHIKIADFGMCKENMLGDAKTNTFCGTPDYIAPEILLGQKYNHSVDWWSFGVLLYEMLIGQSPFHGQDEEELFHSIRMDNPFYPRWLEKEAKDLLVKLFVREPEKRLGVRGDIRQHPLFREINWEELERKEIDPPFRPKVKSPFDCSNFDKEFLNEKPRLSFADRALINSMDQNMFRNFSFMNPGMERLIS

[8] = target: T2, Protein kinase C delta type; experiment: Displacement of [3H]PDBu from protein kinase C delta C1b domain
[9] = target: Protein kinase C alpha type (Homo sapiens, UniProt P17252); experiment: Displacement of [3H]PDBu from protein kinase C alpha C1b domain

T2 sequence (Q05655 whole entry, the tested form may be a part): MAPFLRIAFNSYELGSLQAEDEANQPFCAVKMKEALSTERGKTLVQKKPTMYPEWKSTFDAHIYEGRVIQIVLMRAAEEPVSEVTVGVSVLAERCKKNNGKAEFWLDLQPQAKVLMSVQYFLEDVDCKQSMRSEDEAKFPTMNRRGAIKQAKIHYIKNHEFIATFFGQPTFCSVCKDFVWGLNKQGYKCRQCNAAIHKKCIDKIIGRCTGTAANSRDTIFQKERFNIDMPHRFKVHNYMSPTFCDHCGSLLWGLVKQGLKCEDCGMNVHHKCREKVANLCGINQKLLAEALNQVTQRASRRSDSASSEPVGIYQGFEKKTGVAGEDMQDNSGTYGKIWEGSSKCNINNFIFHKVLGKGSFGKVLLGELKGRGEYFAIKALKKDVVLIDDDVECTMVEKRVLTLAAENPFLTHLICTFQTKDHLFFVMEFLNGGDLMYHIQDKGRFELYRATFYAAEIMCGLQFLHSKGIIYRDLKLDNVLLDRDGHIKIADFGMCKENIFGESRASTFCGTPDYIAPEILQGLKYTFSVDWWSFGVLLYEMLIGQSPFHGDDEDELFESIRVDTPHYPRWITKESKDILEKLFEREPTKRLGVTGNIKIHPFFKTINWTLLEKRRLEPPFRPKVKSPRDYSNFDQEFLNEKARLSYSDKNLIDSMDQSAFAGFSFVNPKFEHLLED

Structure (SMILES)	Ki [1]	Ki [2]	Ki [3]	Ki [4]	Ki [5]	Ki [6]	Ki [7]	Ki [8]	Ki [9]
CCCCCCCC(=O)O[C@H]1/C(=C/C(=O)OC)CC2C[C@H]([C@@H](C)O)OC(=O)C[C@H](O)CCO[C@H](C(C)(C)C)C[C@@H]3CCO[C@H](/C=C/C(C)(C)[C@]1(O)O2)O3	> 500 nM	85.4 nM	70.2 nM	36.4 nM	55 nM	> 500 nM	24.1 nM	6.3 nM	> 500 nM
CCCCCCCC(=O)O[C@H]1/C(=C/C(=O)OC)CC2C[C@H]([C@@H](C)O)OC(=O)C[C@@H](O)C[C@@H]3CCC[C@H](C[C@@H]4CCO[C@H](/C=C/C(C)(C)[C@]1(O)O2)O4)O3	> 500 nM	494 nM	> 500 nM	280 nM	490 nM	> 500 nM	147 nM	64.2 nM	> 500 nM
CCCCCCCC(=O)O[C@H]1/C(=C/C(=O)OC)CC2C[C@H]([C@@H](C)O)OC(=O)C[C@H](O)C[C@@H]3CCC[C@H](C[C@@H]4CCO[C@H](/C=C/C(C)(C)[C@]1(O)O2)O4)O3	> 500 nM	65.9 nM	23.5 nM	13.4 nM	17.9 nM	> 500 nM	6.6 nM	2.5 nM	126 nM
